Test results as given in US20120029187A1, “HALOALKYLSULFONANILIDE DERIVATIVE” (Nissan Chemical Industries, Ltd., priority 2009, published 2012).

Experiments:
Assay type in all cases: in vivo
[1] = test system: barnyardgrass; assay: Test Example 4: herbicidal effect in foliage treatment; conditions: dose 3.2 g/a, three weeks after application
Procedure, shortened: (§1)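 A uniform foliar spray of emulsifiable concentrate, diluted with water to give the stated g/a dose, was applied to plants raised for 14 days from seed in sterilized diluvial soil at 25 to 30° C. Herbicidal effects were scored three weeks later.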

[2] = test system: Italian ryegrass; assay: as above; conditions: dose 3.2 g/a, three weeks after application
Procedure, shortened: as §1

[3] = test system: common chickweed; assay: as above; conditions: dose 3.2 g/a, three weeks after application
Procedure, shortened: as §1

[4] = test system: beadstraw; assay: as above; conditions: dose 3.2 g/a, three weeks after application
Procedure, shortened: as §1

[5] = test system: posumbu knotweed; assay: as above; conditions: dose 3.2 g/a, three weeks after application
Procedure, shortened: as §1

[6] = test system: water foxtail; assay: as above; conditions: dose 3.2 g/a, three weeks after application
Procedure, shortened: as §1

[7] = test system: redroot pigweed; assay: as above; conditions: dose 3.2 g/a, three weeks after application
Procedure, shortened: as §1

[8] = test system: common ragweed; assay: as above; conditions: dose 3.2 g/a, three weeks after application
Procedure, shortened: as §1

[9] = test system: velvetleaf; assay: as above; conditions: dose 3.2 g/a, three weeks after application
Procedure, shortened: as §1

[10] = test system: large crabgrass; assay: as above; conditions: dose 3.2 g/a, three weeks after application
Procedure, shortened: as §1

[11] = test system: giant foxtail; assay: as above; conditions: dose 3.2 g/a, three weeks after application
Procedure, shortened: as §1

[12] = test system: common lambsquater; assay: as above; conditions: dose 3.2 g/a, three weeks after application
Procedure, shortened: as §1

[13] = test system: bulrush; assay: Test Example 2: herbicidal effects during the vegetation period under submerged conditions; conditions: treatment during the vegetation period under submerged conditions; dose 2.52 g/a
Procedure, shortened: (§2)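 Barnyardgrass, bulrush and ducksalad were co-sown in alluvial soil flooded to 4 cm and grown in a greenhouse at 25 to 30° C. At the 1- or 2-leaf stage, water-diluted emulsifiable concentrates went onto the water surface at set doses (g/a). Herbicidal effect was scored three weeks later on a graded scale.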

[14] = test system: barnyardgrass; assay: as above; conditions: treatment during the vegetation period under submerged conditions; dose 2.52 g/a
Procedure, shortened: as §2

[15] = test system: ducksalad; assay: as above; conditions: treatment during the vegetation period under submerged conditions; dose 2.52 g/a
Procedure, shortened: as §2

[16] = test system: barnyardgrass; assay: Test Example 3: herbicidal effects in soil treatment; conditions: dose 3.2 g/a
Procedure, shortened: (§3)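 Seeds were sown in sterilized diluvial soil and covered with about 1.5 cm of soil. Compounds, formulated as emulsifiable concentrates and diluted with water, were sprayed evenly over the soil surface at set doses in g/a. Herbicidal effect was scored on a rating scale three weeks later.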

[17] = test system: Italian ryegrass; assay: as above; conditions: dose 3.2 g/a
Procedure, shortened: as §3

[18] = test system: common chickweed; assay: as above; conditions: dose 3.2 g/a
Procedure, shortened: as §3

[19] = test system: posumbu knotweed; assay: as above; conditions: dose 3.2 g/a
Procedure, shortened: as §3

[20] = test system: water foxtail; assay: as above; conditions: dose 3.2 g/a
Procedure, shortened: as §3

[21] = test system: redroot pigweed; assay: as above; conditions: dose 3.2 g/a
Procedure, shortened: as §3

[22] = test system: common ragweed; assay: as above; conditions: dose 3.2 g/a
Procedure, shortened: as §3

[23] = test system: velvetleaf; assay: as above; conditions: dose 3.2 g/a
Procedure, shortened: as §3

[24] = test system: large crabgrass; assay: as above; conditions: dose 3.2 g/a
Procedure, shortened: as §3

[25] = test system: giant foxtail; assay: as above; conditions: dose 3.2 g/a
Procedure, shortened: as §3

[26] = test system: common lambsquater; assay: as above; conditions: dose 3.2 g/a
Procedure, shortened: as §3

[27] = test system: bulrush; assay: Test Example 1: herbicidal effects in preemergence treatment under submerged conditions; conditions: dose 2.52 g/a
Procedure, shortened: (§4)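 Alluvial soil flooded to 4 cm depth; barnyardgrass, bulrush and ducksalad sown and 2.5-leaf rice seedlings transplanted. Same day, water-diluted emulsifiable concentrates applied to the water surface at set doses (g/a). Kept at 25–30 °C in greenhouse; effects scored 0–5 by mortality after three weeks.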

[28] = test system: barnyardgrass; assay: as above; conditions: dose 2.52 g/a
Procedure, shortened: as §4

[29] = test system: ducksalad; assay: as above; conditions: dose 2.52 g/a
Procedure, shortened: as §4

[30] = test system: transplanted rice; assay: Test Example 1: preemergence treatment under submerged conditions, effect on crop; conditions: dose 2.52 g/a
Procedure, shortened: as §4

CCC1(C)CC(=O)N(Cc2ccccc2NS(=O)(=O)C(F)(F)F)CO1 (stereo not drawn) [II-40]
A: barnyardgrass, herbicidal effect [1]: 5 (mortality of 90% or above (nearly complete death)) | H: Italian ryegrass, herbicidal effect [2]: 5 (mortality of 90% or above (nearly complete death)) | N: common chickweed, herbicidal effect [3]: 4 (mortality of at least 70% and less than 90%) | O: beadstraw, herbicidal effect [4]: 3 (mortality of at least 40% and less than 70%) | M: posumbu knotweed, herbicidal effect [5]: 0 (mortality of less than 5% (almost ineffective)) | G: water foxtail, herbicidal effect [6]: 5 (mortality of 90% or above (nearly complete death)) | K: redroot pigweed, herbicidal effect [7]: 0 (mortality of less than 5% (almost ineffective)) | J: common ragweed, herbicidal effect [8]: 4 (mortality of at least 70% and less than 90%) | I: velvetleaf, herbicidal effect [9]: 5 (mortality of 90% or above (nearly complete death)) | D: large crabgrass, herbicidal effect [10]: 3 (mortality of at least 40% and less than 70%) | E: giant foxtail, herbicidal effect [11]: 4 (mortality of at least 70% and less than 90%) | L: common lambsquater, herbicidal effect [12]: 4 (mortality of at least 70% and less than 90%) | B: bulrush, herbicidal effect (evaluation scale 0-5) [13]: 5 (mortality of 90% or above (nearly complete death)) | A: barnyardgrass, herbicidal effect (evaluation scale 0-5) [14]: 4 (mortality of at least 70% and less than 90%) | C: ducksalad, herbicidal effect (evaluation scale 0-5) [15]: 5 (mortality of 90% or above (nearly complete death)) | A: barnyardgrass, herbicidal effect (evaluation scale 0-5) [16]: 5 (mortality of 90% or above (nearly complete death)) | H: Italian ryegrass, herbicidal effect (evaluation scale 0-5) [17]: 5 (mortality of 90% or above (nearly complete death)) | N: common chickweed, herbicidal effect (evaluation scale 0-5) [18]: 5 (mortality of 90% or above (nearly complete death)) | M: posumbu knotweed, herbicidal effect (evaluation scale 0-5) [19]: 4 (mortality of at least 70% and less than 90%) | G: water foxtail, herbicidal effect (evaluation scale 0-5) [20]: 5 (mortality of 90% or above (nearly complete death)) | K: redroot pigweed, herbicidal effect (evaluation scale 0-5) [21]: 4 (mortality of at least 70% and less than 90%) | J: common ragweed, herbicidal effect (evaluation scale 0-5) [22]: 5 (mortality of 90% or above (nearly complete death)) | I: velvetleaf, herbicidal effect (evaluation scale 0-5) [23]: 5 (mortality of 90% or above (nearly complete death)) | D: large crabgrass, herbicidal effect (evaluation scale 0-5) [24]: 5 (mortality of 90% or above (nearly complete death)) | E: giant foxtail, herbicidal effect (evaluation scale 0-5) [25]: 5 (mortality of 90% or above (nearly complete death)) | L: common lambsquater, herbicidal effect (evaluation scale 0-5) [26]: 0 (mortality of less than 5% (almost ineffective)) | B: bulrush, herbicidal effect (evaluation scale 0-5) [27]: 5 (mortality of 90% or above (nearly complete death)) | A: barnyardgrass, herbicidal effect (evaluation scale 0-5) [28]: 5 (mortality of 90% or above (nearly complete death)) | C: ducksalad, herbicidal effect (evaluation scale 0-5) [29]: 5 (mortality of 90% or above (nearly complete death)) | a: transplanted rice, effect on crop (evaluation scale 0-5) [30]: 0 (mortality of less than 5% (almost ineffective))

CCC(=O)N(c1ccccc1CN1COC(C)(CC)CC1=O)S(=O)(=O)C(F)(F)F (stereo not drawn) [II-41]
A: barnyardgrass, herbicidal effect [1]: 5 (mortality of 90% or above (nearly complete death)) | H: Italian ryegrass, herbicidal effect [2]: 4 (mortality of at least 70% and less than 90%) | N: common chickweed, herbicidal effect [3]: 3 (mortality of at least 40% and less than 70%) | O: beadstraw, herbicidal effect [4]: 4 (mortality of at least 70% and less than 90%) | M: posumbu knotweed, herbicidal effect [5]: 0 (mortality of less than 5% (almost ineffective)) | G: water foxtail, herbicidal effect [6]: 5 (mortality of 90% or above (nearly complete death)) | K: redroot pigweed, herbicidal effect [7]: 0 (mortality of less than 5% (almost ineffective)) | J: common ragweed, herbicidal effect [8]: 3 (mortality of at least 40% and less than 70%) | I: velvetleaf, herbicidal effect [9]: 5 (mortality of 90% or above (nearly complete death)) | D: large crabgrass, herbicidal effect [10]: 1 (mortality of at least 5% and less than 20%) | E: giant foxtail, herbicidal effect [11]: 4 (mortality of at least 70% and less than 90%) | L: common lambsquater, herbicidal effect [12]: 2 (mortality of at least 20% and less than 40%) | B: bulrush, herbicidal effect (evaluation scale 0-5) [13]: 5 (mortality of 90% or above (nearly complete death)) | A: barnyardgrass, herbicidal effect (evaluation scale 0-5) [14]: 5 (mortality of 90% or above (nearly complete death)) | C: ducksalad, herbicidal effect (evaluation scale 0-5) [15]: 5 (mortality of 90% or above (nearly complete death)) | A: barnyardgrass, herbicidal effect (evaluation scale 0-5) [16]: 5 (mortality of 90% or above (nearly complete death)) | H: Italian ryegrass, herbicidal effect (evaluation scale 0-5) [17]: 5 (mortality of 90% or above (nearly complete death)) | N: common chickweed, herbicidal effect (evaluation scale 0-5) [18]: 5 (mortality of 90% or above (nearly complete death)) | M: posumbu knotweed, herbicidal effect (evaluation scale 0-5) [19]: 4 (mortality of at least 70% and less than 90%) | G: water foxtail, herbicidal effect (evaluation scale 0-5) [20]: 5 (mortality of 90% or above (nearly complete death)) | K: redroot pigweed, herbicidal effect (evaluation scale 0-5) [21]: 2 (mortality of at least 20% and less than 40%) | J: common ragweed, herbicidal effect (evaluation scale 0-5) [22]: 4 (mortality of at least 70% and less than 90%) | I: velvetleaf, herbicidal effect (evaluation scale 0-5) [23]: 5 (mortality of 90% or above (nearly complete death)) | D: large crabgrass, herbicidal effect (evaluation scale 0-5) [24]: 4 (mortality of at least 70% and less than 90%) | E: giant foxtail, herbicidal effect (evaluation scale 0-5) [25]: 4 (mortality of at least 70% and less than 90%) | L: common lambsquater, herbicidal effect (evaluation scale 0-5) [26]: 3 (mortality of at least 40% and less than 70%) | B: bulrush, herbicidal effect (evaluation scale 0-5) [27]: 5 (mortality of 90% or above (nearly complete death)) | A: barnyardgrass, herbicidal effect (evaluation scale 0-5) [28]: 5 (mortality of 90% or above (nearly complete death)) | C: ducksalad, herbicidal effect (evaluation scale 0-5) [29]: 5 (mortality of 90% or above (nearly complete death)) | a: transplanted rice, effect on crop (evaluation scale 0-5) [30]: 0 (mortality of less than 5% (almost ineffective))
